Results from PubChem BioAssay (NCI).
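In this assay, cells in 96-well plates receive the compound at five concentrations for 48 hours. Endpoints are linearly interpolated between the surrounding concentrations. TGI: total growth inhibition.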

Legend:
Test in all cases: growth of human tumour cells (NCI), 48 h
DLD-1 colon = system: DLD-1 colon
SF-295 CNS = system: SF-295 CNS
SK-MEL-2 melanoma = system: SK-MEL-2 melanoma
NCI-H23 lung = system: NCI-H23 lung
A498 renal = system: A498 renal
MALME-3M melanoma = system: MALME-3M melanoma
CAKI-1 renal = system: CAKI-1 renal
HCT-116 colon = system: HCT-116 colon
NCI-H226 lung = system: NCI-H226 lung
ACHN renal = system: ACHN renal
NCI-H460 lung = system: NCI-H460 lung
HOP-62 NSCLC = system: HOP-62 NSCLC
LOX IMVI melanoma = system: LOX IMVI melanoma
DMS 114 small cell lung = system: DMS 114 small cell lung
DMS 273 small cell lung = system: DMS 273 small cell lung
SK-OV-3 ovarian = system: SK-OV-3 ovarian
SF-539 CNS = system: SF-539 CNS
SNB-75 CNS = system: SNB-75 CNS
786-0 renal = system: 786-0 renal
A549 NSCLC = system: A549 NSCLC
CCRF-CEM leukemia = system: CCRF-CEM leukemia
OVCAR-3 ovarian = system: OVCAR-3 ovarian
SK-MEL-28 melanoma = system: SK-MEL-28 melanoma
OVCAR-8 ovarian = system: OVCAR-8 ovarian
HOP-18 NSCLC = system: HOP-18 NSCLC
HCT-15 colon = system: HCT-15 colon
RPMI-8226 leukemia = system: RPMI-8226 leukemia
HCC-2998 colon = system: HCC-2998 colon
UACC-62 melanoma = system: UACC-62 melanoma
M19-MEL melanoma = system: M19-MEL melanoma
KM20L2 colon = system: KM20L2 colon
SW-620 colon = system: SW-620 colon
OVCAR-5 ovarian = system: OVCAR-5 ovarian
SNB-19 CNS = system: SNB-19 CNS
COLO 205 colon = system: COLO 205 colon
RXF-631 renal = system: RXF-631 renal
HT29 colon = system: HT29 colon
U251 CNS = system: U251 CNS
K-562 leukemia = system: K-562 leukemia
EKVX NSCLC = system: EKVX NSCLC
KM12 colon = system: KM12 colon
MOLT-4 leukemia = system: MOLT-4 leukemia
HOP-92 NSCLC = system: HOP-92 NSCLC
NCI-H522 lung = system: NCI-H522 lung
LXFL 529 NSCLC = system: LXFL 529 NSCLC
SF-268 CNS = system: SF-268 CNS
OVCAR-4 ovarian = system: OVCAR-4 ovarian
IGROV1 ovarian = system: IGROV1 ovarian
M14 melanoma = system: M14 melanoma
XF 498 CNS = system: XF 498 CNS
TK-10 renal = system: TK-10 renal
SK-MEL-5 melanoma = system: SK-MEL-5 melanoma
HL-60(TB) leukemia = system: HL-60(TB) leukemia
SN12C renal = system: SN12C renal
UACC-257 melanoma = system: UACC-257 melanoma
SNB-78 CNS = system: SNB-78 CNS
RXF 393 renal = system: RXF 393 renal
UO-31 renal = system: UO-31 renal

Question: `Cn1c(=O)ccc2cc(C(=O)c3ccccc3)ccc21` was tested. Which TGI (DLD-1 colon) did it give?
Answer: > 100 µM

Question: And the TGI (SF-295 CNS)?
Answer: > 100 µM

Question: What about the TGI (SK-MEL-2 melanoma) of the same compound?
Answer: > 100 µM

Question: And the TGI (NCI-H23 lung)?
Answer: > 100 µM

Question: And the TGI (A498 renal)?
Answer: > 100 µM

Question: And the TGI (MALME-3M melanoma)?
Answer: > 100 µM

Question: What about the TGI (CAKI-1 renal) of the same compound?
Answer: > 100 µM

Question: And the TGI (HCT-116 colon)?
Answer: > 100 µM

Question: And the TGI (NCI-H226 lung)?
Answer: 99.7 µM

Question: What about the TGI (ACHN renal) of the same compound?
Answer: > 100 µM

Question: What about the TGI (NCI-H460 lung) of the same compound?
Answer: > 100 µM

Question: And the TGI (HOP-62 NSCLC)?
Answer: > 100 µM

Question: And the TGI (LOX IMVI melanoma)?
Answer: > 100 µM

Question: And the TGI (DMS 114 small cell lung)?
Answer: 81.1 µM

Question: What about the TGI (DMS 273 small cell lung) of the same compound?
Answer: > 100 µM

Question: What about the TGI (SK-OV-3 ovarian) of the same compound?
Answer: > 100 µM

Question: And the TGI (SF-539 CNS)?
Answer: > 100 µM

Question: What about the TGI (SNB-75 CNS) of the same compound?
Answer: 54.3 µM

Question: And the TGI (786-0 renal)?
Answer: > 100 µM

Question: And the TGI (A549 NSCLC)?
Answer: > 100 µM

Question: And the TGI (CCRF-CEM leukemia)?
Answer: > 100 µM

Question: What about the TGI (OVCAR-3 ovarian) of the same compound?
Answer: > 100 µM

Question: And the TGI (SK-MEL-28 melanoma)?
Answer: > 100 µM

Question: And the TGI (OVCAR-8 ovarian)?
Answer: > 100 µM

Question: What about the TGI (HOP-18 NSCLC) of the same compound?
Answer: > 100 µM

Question: What about the TGI (HCT-15 colon) of the same compound?
Answer: > 100 µM

Question: And the TGI (RPMI-8226 leukemia)?
Answer: > 100 µM

Question: And the TGI (HCC-2998 colon)?
Answer: > 100 µM

Question: And the TGI (UACC-62 melanoma)?
Answer: 50.5 µM

Question: What about the TGI (M19-MEL melanoma) of the same compound?
Answer: > 100 µM

Question: What about the TGI (KM20L2 colon) of the same compound?
Answer: > 100 µM

Question: And the TGI (SW-620 colon)?
Answer: > 100 µM

Question: And the TGI (OVCAR-5 ovarian)?
Answer: > 100 µM

Question: What about the TGI (SNB-19 CNS) of the same compound?
Answer: > 100 µM

Question: What about the TGI (COLO 205 colon) of the same compound?
Answer: > 100 µM

Question: And the TGI (RXF-631 renal)?
Answer: > 100 µM

Question: And the TGI (HT29 colon)?
Answer: > 100 µM

Question: What about the TGI (U251 CNS) of the same compound?
Answer: > 100 µM

Question: What about the TGI (K-562 leukemia) of the same compound?
Answer: > 100 µM

Question: And the TGI (EKVX NSCLC)?
Answer: > 100 µM

Question: And the TGI (KM12 colon)?
Answer: > 100 µM

Question: What about the TGI (MOLT-4 leukemia) of the same compound?
Answer: > 100 µM

Question: What about the TGI (HOP-92 NSCLC) of the same compound?
Answer: > 100 µM

Question: What about the TGI (NCI-H522 lung) of the same compound?
Answer: 82.7 µM

Question: And the TGI (LXFL 529 NSCLC)?
Answer: > 100 µM

Question: What about the TGI (SF-268 CNS) of the same compound?
Answer: > 100 µM

Question: What about the TGI (OVCAR-4 ovarian) of the same compound?
Answer: > 100 µM

Question: And the TGI (IGROV1 ovarian)?
Answer: > 100 µM

Question: And the TGI (M14 melanoma)?
Answer: > 100 µM

Question: What about the TGI (XF 498 CNS) of the same compound?
Answer: > 100 µM

Question: And the TGI (TK-10 renal)?
Answer: > 100 µM

Question: And the TGI (SK-MEL-5 melanoma)?
Answer: 55.7 µM

Question: And the TGI (HL-60(TB) leukemia)?
Answer: > 100 µM

Question: What about the TGI (SN12C renal) of the same compound?
Answer: > 100 µM

Question: Which results are given for `COc1cc(C2C(C(=O)Nc3ccccc3C)=C(C)NC(C)=C2C(=O)Nc2ccccc2C)ccc1O`?
Answer: TGI (DLD-1 colon): > 100 µM; TGI (SF-295 CNS): > 100 µM; TGI (SK-MEL-2 melanoma): > 100 µM; TGI (NCI-H23 lung): > 100 µM; TGI (A498 renal): > 100 µM; TGI (MALME-3M melanoma): > 100 µM; TGI (CAKI-1 renal): > 100 µM; TGI (HCT-116 colon): > 100 µM; TGI (NCI-H226 lung): > 100 µM; TGI (ACHN renal): > 100 µM; TGI (NCI-H460 lung): > 100 µM; TGI (UACC-257 melanoma): > 100 µM; TGI (HOP-62 NSCLC): > 100 µM; TGI (DMS 114 small cell lung): > 100 µM; TGI (DMS 273 small cell lung): > 100 µM; TGI (SK-OV-3 ovarian): > 100 µM; TGI (SF-539 CNS): > 100 µM; TGI (SNB-75 CNS): > 100 µM; TGI (786-0 renal): > 100 µM; TGI (A549 NSCLC): > 100 µM; TGI (CCRF-CEM leukemia): > 100 µM; TGI (OVCAR-3 ovarian): > 100 µM; TGI (SK-MEL-28 melanoma): > 100 µM; TGI (OVCAR-8 ovarian): > 100 µM; TGI (HOP-18 NSCLC): > 100 µM; TGI (SNB-78 CNS): > 100 µM; TGI (RPMI-8226 leukemia): > 100 µM; TGI (HCC-2998 colon): > 100 µM; TGI (UACC-62 melanoma): > 100 µM; TGI (M19-MEL melanoma): > 100 µM; TGI (KM20L2 colon): > 100 µM; TGI (SW-620 colon): > 100 µM; TGI (RXF 393 renal): > 100 µM; TGI (OVCAR-5 ovarian): > 100 µM; TGI (SNB-19 CNS): > 100 µM; TGI (COLO 205 colon): > 100 µM; TGI (RXF-631 renal): > 100 µM; TGI (HT29 colon): > 100 µM; TGI (U251 CNS): > 100 µM; TGI (K-562 leukemia): > 100 µM; TGI (EKVX NSCLC): > 100 µM; TGI (KM12 colon): > 100 µM; TGI (MOLT-4 leukemia): > 100 µM; TGI (HOP-92 NSCLC): > 100 µM; TGI (NCI-H522 lung): > 100 µM; TGI (LXFL 529 NSCLC): > 100 µM; TGI (OVCAR-4 ovarian): > 100 µM; TGI (IGROV1 ovarian): > 100 µM; TGI (M14 melanoma): > 100 µM; TGI (XF 498 CNS): > 100 µM; TGI (TK-10 renal): > 100 µM; TGI (SK-MEL-5 melanoma): > 100 µM; TGI (HL-60(TB) leukemia): > 100 µM; TGI (UO-31 renal): > 100 µM; TGI (SN12C renal): > 100 µM
